Measured values from EP4786466A1, “QUINAZOLINE DERIVATIVE, SALT THEREOF, AND PHARMACEUTICAL COMPOSITION COMPRISING SAME AS ACTIVE INGREDIENT” (Korea Research Institute of Chemical Technology, priority 2023, dated 2025).
Where two headings read alike, the source gives them in different places.

Columns and labels:
[1] = target: T1, Recombinant GST-TAG-MASTL (Homo sapiens, UniProt Q96GX5); assay: HTRF-based kinase assay (HTRF KinEASE assay kit); type: biochemical; details: for activity at 1 µM: read-out: MASTL activity (%) HTRF (1 µM)
T1 construct: GST; purchased Thermo Fisher Scientific
T1 sequence (Q96GX5 1-879): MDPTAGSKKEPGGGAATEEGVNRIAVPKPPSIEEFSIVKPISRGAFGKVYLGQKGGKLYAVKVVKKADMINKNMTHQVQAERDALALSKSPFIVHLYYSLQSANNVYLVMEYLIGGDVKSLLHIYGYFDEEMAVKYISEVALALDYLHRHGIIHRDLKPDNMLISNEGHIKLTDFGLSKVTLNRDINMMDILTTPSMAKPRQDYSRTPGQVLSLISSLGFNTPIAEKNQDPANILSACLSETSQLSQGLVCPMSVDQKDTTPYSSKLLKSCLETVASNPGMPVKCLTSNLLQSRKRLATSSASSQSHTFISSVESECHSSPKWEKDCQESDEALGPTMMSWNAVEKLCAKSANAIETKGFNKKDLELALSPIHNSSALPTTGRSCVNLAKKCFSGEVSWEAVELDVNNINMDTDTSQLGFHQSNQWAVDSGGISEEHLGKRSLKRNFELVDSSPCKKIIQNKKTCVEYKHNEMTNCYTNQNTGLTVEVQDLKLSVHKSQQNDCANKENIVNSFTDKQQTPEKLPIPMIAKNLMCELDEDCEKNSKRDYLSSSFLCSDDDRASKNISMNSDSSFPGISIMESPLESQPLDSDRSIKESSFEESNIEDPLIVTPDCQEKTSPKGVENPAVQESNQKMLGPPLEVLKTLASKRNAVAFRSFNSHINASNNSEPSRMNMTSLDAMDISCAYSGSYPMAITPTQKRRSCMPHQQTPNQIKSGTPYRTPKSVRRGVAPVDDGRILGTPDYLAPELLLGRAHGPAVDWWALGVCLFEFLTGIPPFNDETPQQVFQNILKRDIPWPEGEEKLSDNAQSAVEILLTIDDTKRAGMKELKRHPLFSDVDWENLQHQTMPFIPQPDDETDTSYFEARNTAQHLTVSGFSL
Description: Recombinant GST-TAG-MASTL (Thermo Fisher Scientific, MA, USA) was used for HTRF-based kinase assays. The HTRF KinEASE assay kit (CisBio, MA, USA) was used according to the manufacturer's instructions.

pENSA = pENSA level by immunofluorescence (described method: in vitro kinase analysis with GST-tag-MASTL and His-tag-ENSA); type: cell-based; details: for pENSA (%) Immunofluor ecense (1 µM): compound 1 µM
Method: Two recombinant GST-tag-MASTL (Thermo Fisher Scientific) and His-tag-ENSA (Sino Biological Inc., Beijing, China) were used for in vitro kinase analysis. In vitro kinase analysis was performed as described in the literature [Front Oncol 2020, 10, 571601, 39-202021-10-20doi:10.3389/fonc.2020.571601.].
Phosphorylated ENSA (pENSA), which is activated by phosphorylation by MASTL, can be utilized as a biomarker as it is expected that its activity will be inhibited along with the inhibition of MASTL. In the cell viability assay, MCF7 refers to a breast cancer cell line, and MCF10A refers to a normal breast […] cell line.

[2] = system: MCF7 breast cancer cell lines; assay: Cell viability analysis, WST-8 assay, MCF7; details: Homo sapiens, MCF7, 72 h; for viability at 10 µM: read-out: Cell viability (%) WST-8, MCF7, footnote b: concentration 10 µM, 72 hours; for IC50: read-out: IC50 Cell viability (MCF7)
Method: MCF7 breast cancer cell lines and MCF10A normal breast cancer cell lines were treated with serial dilutions of the compounds of the present invention ranging from 1 µM to 15.63 nM for 72 hours. Cell viability was measured by the WST-8 assay (Cyto XTM cell viability assay kit; LPS solution, Daejeon, Korea) according to the manufacturer's instructions.

[3] = HTRF, read-out: IC50(nM) MASTL activity
[4] = footnote b: concentration 10 µM, read-out: MASTL activity (%) HTRF
[5] = footnote b: concentration 10 µM
[6] = read-out: Cell viability (%) WST-8, MCF7 (1 µM), compound 1 µM, 72 hours
[7] = read-out: Cell viability (%) WST-8, MCF7 (1 µM)
[8] = read-out: MASTL activity (%) HTRF

Row | Structure (SMILES) | IC50 [1, 3] [nM] | activity at 10 µM [1, 4] [%] | pENSA (%) Immunofluor ecense (pENSA; [5]) | IC50 (pENSA; unit µM, read-out: IC50 pENSA) [µM] | viability at 10 µM [2] [%] | IC50 [2] [nM] | other results
1 | O=S(=O)(c1ccc2ccccc2c1)N1CC2CC1CN2c1nc(Nc2cc(C3CC3)[nH]n2)c2ccccc2n1 (centres unmarked) [compound 15y, M-(5-cyclopropyl-1G-pyrazol-3-yl)-2-(5-(naphthalen-2-ylsulfonyl)-2,5-diazabicyclo[2.2.1]heptan-2-yl)quinazolin-4-amine] | 928 | 18.5 | 35.5^b % | 6.9 | 64.1 | 8200 | 
2 | CC(=O)c1ccc(S(=O)(=O)N2CC3CC2CN3c2nc(Nc3cc(C4CC4)[nH]n3)c3ccccc3n2)cc1 (centres unmarked) [compound 15s, 1-(4-((5-(4-((5-cyclopropyl-1G-pyrazol-3-yl)amino)quinazolin-2-yl)-2,5-diazabicyclo[2.2.1]heptan-2-yl)sulfonyl)phenyl)ethan-1-one] | 354 | 19.2 | 0.2^b % | 2.2 | 5.1 | 2900 | 
3 | N#CCc1ccc(Nc2nc(Nc3cc[nH]n3)c3ccccc3n2)cc1 [compound 3o, 2-(4-((4-((1G-pyrazol-3-yl)amino)quinazolin-2-yl)amino)phenyl)acetonitrile] |  |  |  |  |  |  | IC50 [1]: 2600 nM; activity at 1 µM [1]: 102%; viability at 1 µM [2, 6]: 108%
4 | N#CCc1ccc(Nc2nc(Nc3n[nH]c4ccccc34)c3ccccc3n2)cc1 [compound 3s, 2-(4-((4-((1G-indazol-3-yl)amino)quinazolin-2-yl)amino)phenyl)acetonitrile] |  |  |  |  |  |  | IC50 ([1]; HTRF, unit µM, read-out: IC50 MASTL activity): 4400 nM; activity at 1 µM ([1]; compound 1 µM): 102%; pENSA (%) Immunofluor ecense (1 µM) (pENSA): 60.6%; viability at 1 µM [2, 7]: 100%
5 | COc1cc(Nc2nc(Nc3ccc(CC#N)cc3)nc3ccccc23)n[nH]1 [compound 3r, 2-(4-((4-((5-methoxy-1G-pyrazol-3-yl)amino)quinazolin-2-yl)amino)phenyl)acetonitrile] |  |  |  |  |  |  | IC50 [1]: 816 nM; activity at 1 µM [1]: 67.2%; viability at 1 µM [2, 6]: 98.3%
6 | O=S(=O)(c1ccc(-c2ccccc2)cc1)N1CC2CC1CN2c1nc(Nc2cc(C3CC3)[nH]n2)c2ccccc2n1 (centres unmarked) [compound 15aa, 2-(5-([1,1'-biphenyl]-4-ylsulfonyl)-2,5-diazabicyclo[2.2.1]heptan-2-yl)-M-(5-cyclopropyl-1G-pyrazol-3-yl)quinazolin-4-amine] |  |  |  |  |  |  | activity at 1.1 µM [1, 8]: 55.5%; pENSA (%) Immunofluor ecense (pENSA; footnote d: concentration 1.1 µM): 61.2^d %; viability at 1.1 µM ([2]; read-out: Cell viability (%) WST-8, MCF7, footnote d: concentration 1.1 µM, 72 hours): 87.5%
7 | O=S(=O)(Cc1ccccc1)N1CC2CC1CN2c1nc(Nc2cc(C3CC3)[nH]n2)c2ccccc2n1 (centres unmarked) [compound 15l, 2-(5-(benzylsulfonyl)-2,5-diazabicyclo[2.2.1]heptan-2-yl)-M-(5-cyclopropyl-1G-pyrazol-3-yl)quinazolin-4-amine] | 226 | 18.1 | 1.9^b % | 3.7 | 2.4 | 2700 | 
8 | Cc1cccc(S(=O)(=O)N2CC3CC2CN3c2nc(Nc3cc(C4CC4)[nH]n3)c3ccccc3n2)c1 (centres unmarked) [compound 15t, M-(5-cyclopropyl-1G-pyrazol-3-yl)-2-(5-(/ -tolylsulfonyl)-2,5-diazabicyclo[2.2.1]heptan-2-yl)quinazolin-4-amine] | 563 | 15.5 | 0^b % | 6.2 | 35.5 | 7900 | 
9 | O=S(=O)(c1cccs1)N1CC2CC1CN2c1nc(Nc2cc(C3CC3)[nH]n2)c2ccccc2n1 (centres unmarked) [compound 15ab, M-(5-cyclopropyl-1G-pyrazol-3-yl)-2-(5-(thiophen-2-ylsulfonyl)-2,5-diazabicyclo[2.2.1]heptan-2-yl)quinazolin-4-amine] | 222 | 17.3 | 0.4^b % | 2.5 | 3.9 | 2400 | 
10 | O=S(=O)(C1CC1)N1CC2CC1CN2c1nc(Nc2cc(C3CC3)[nH]n2)c2ccccc2n1 (centres unmarked) [compound 15i, M-(5-cyclopropyl-1G-pyrazol-3-yl)-2-(5-(cyclopropylsulfonyl)-2,5-diazabicyclo[2.2.1]heptan-2-yl)quinazolin-4-amine] | 310 | 15.5 | 0.2^b % | 2.1 | 5.2 | 2000 | 
11 | Cc1n[nH]cc1Nc1nc(Nc2ccc(CC#N)cc2)nc2ccccc12 [compound 3e, 2-(4-((4-((3-methyl-1G-pyrazol-4-yl)amino)quinazolin-2-yl)amino)phenyl)acetonitrile] |  |  | 102^b % |  | 108 |  | activity at 10 µM [1, 8]: 100%
12 | O=S(=O)(c1c(F)cccc1F)N1CC2CC1CN2c1nc(Nc2cc(C3CC3)[nH]n2)c2ccccc2n1 (centres unmarked) [compound 15p, M-(5-cyclopropyl-1G-pyrazol-3-yl)-2-(5-((2,6-difluorophenyl)sulfonyl)-2,5-diazabicyclo[2.2.1]heptan-2-yl)quinazolin-4-amine] | 331 | 180 | 2.6^b % | 4.4 | 7.4 | 4100 | 
13 | O=S(=O)(C1CCCCC1)N1CC2CC1CN2c1nc(Nc2cc(C3CC3)[nH]n2)c2ccccc2n1 (centres unmarked) [compound 15k, 2-(5-(cyclohexylsulfonyl)-2,5-diazabicyclo[2.2.1]heptan-2-yl)-M-(5-cyclopropyl-1G-pyrazol-3-yl)quinazolin-4-amine] | 152 | 11.3 | 0.5^b % | 3.5 | 12.7 | 4100 | 
14 | N#CCc1ccc(Nc2nc(Nc3cc(Br)[nH]n3)c3ccccc3n2)cc1 [compound 3q, 2-(4-((4-((5-bromo-1G-pyrazol-3-yl)amino)quinazolin-2-yl)amino)phenyl)acetonitrile] |  |  |  |  |  |  | IC50 [1]: 640 nM; activity at 1 µM [1]: 63.1%; viability at 1 µM [2, 6]: 105%
15 | Cc1cc(Nc2nc(Nc3ccc(CC#N)cc3)nc3ccccc23)n[nH]1 [compound 3p, 2-(4-((4-((5-methyl-1G-pyrazol-3-yl)amino)quinazolin-2-yl)amino)phenyl)acetonitrile] | 330 |  |  |  |  |  | activity at 1 µM ([1]; compound 1 µM): 53.1%; pENSA (%) Immunofluor ecense (1 µM) (pENSA): 27.5%; IC50 (pENSA; read-out: IC50(nM) pENSA): 0.239 µM; viability at 1 µM [2, 7]: 106%
16 | Cc1nn(CC(C)C)c(C)c1Nc1nc(Nc2ccc(CC#N)cc2)nc2ccccc12 [compound 3b, 2-(4-((4-((1-isobutyl-3,5-dimethyl-1G-pyrazol-4-yl)amino)quinazolin-2-yl)amino)phenyl)acetonitrile] |  |  | 44.3^b % |  | 55.5 |  | activity at 10 µM [1, 8]: 123%
17 | COc1cccc(S(=O)(=O)N2CC3CC2CN3c2nc(Nc3cc(C4CC4)[nH]n3)c3ccccc3n2)c1 (centres unmarked) [compound 15r, M-(5-cyclopropyl-1G-pyrazol-3-yl)-2-(5-((3-methoxyphenyl)sulfonyl)-2,5-diazabicyclo[2.2.1]heptan-2-yl)quinazolin-4-amine] | 492 | 22.7 | 0.2^b % | 5.5 | 19 | 4300 | 
18 | N#CCc1ccc(Nc2nc(Nc3ccccc3OCc3ccccc3)c3ccccc3n2)cc1 [compound 3t, 2-(4-((4-((2-(benzyloxy)phenyl)amino)quinazolin-2-yl)amino)phenyl)acetonitrile] |  |  |  |  |  |  | activity at 1 µM ([1]; compound 1 µM): 120%; viability at 1 µM [2, 6]: 45.4%
